These results are taken from patent US9980943B2, “Methods of treating muscular dystrophy” (BOARD OF REGENTS OF THE NEVADA SYSTEM OF HIGHER EDUCATION, …, priority 2013, dated 2018).

Common to all, as to format: cell-based, mouse
The subject of assay [1] is α7 integrin (LacZ reporter in α7+/LacZ myotubes). Description: Myotube α7 integrin FDG assay (Burkin assay in myotubes, 96-well). As to conditions: for Burkin Assay in Myotubes, value relative to DMSO: SU9516 analogs, 96-well, N=3-6.
Assay [2] deals with β-galactosidase in CMV-LacZ C2C12 myoblasts. Description: CMV-LacZ secondary screen in C2C12 myoblasts (β-Gal stabilizing assay). As to conditions: for CMV-LACZ in Myoblasts, value relative to DMSO: SU9516 analogs, C2C12 CMV-LacZ, N=2; for CMV-LACZ in Myoblasts (β-galactosidase activity relative to DMSO): CMV-LacZ C2C12 myoblasts. Put shortly: (§1)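 A secondary screen identifies compounds that stabilize β-gal independently of the native promoter, using CMV-LacZ C2C12 cells. Curves span 0.5–40 μM at six levels, in duplicate.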

Assay [3] relates to α7 integrin (LacZ reporter in α7βgal+/− myoblasts). Description: Myoblast α7+/LacZ integrin FDG assay (Burkin assay in myoblasts, 96-well). As to conditions: 96-well; for Burkin Assay in Myoblasts, value relative to DMSO: SU9516 analogs, N=3-6; for Burkin Assay in Myoblasts, signal relative to DMSO: α7+/LacZ myoblasts.
The subject of assay [4] is β-galactosidase in CMV-LacZ C2C12 myotubes. The assay is described as follows: CMV-LacZ secondary screen in C2C12 myotubes (β-Gal stabilizing assay). As to conditions: for CMV-LACZ in Myotubes, value relative to DMSO: SU9516 analogs, C2C12 CMV-LacZ, N=2; for CMV-LACZ in Myotubes, signal relative to DMSO: C2C12 CMV-LacZ myotubes, fold relative to DMSO. The essentials: as §1

The structures appear in SMILES notation.

As for `Cc1ncc(/C=C2\C(=O)Nc3ccccc32)[nH]1` [MLS000834757-01], the “Burkin Assay in Myotubes, value relative to DMSO” value in assay [1] (0.5 uM) is 1.019; in assay [1] (1 uM), 0.943; in assay [1] (5 uM) it was 1.03; in assay [1] (10 uM), 0.9537; in assay [1] (20 uM) it was 0.9989; in assay [1] (40 uM) it was 0.9464. For the same compound, the “CMV-LACZ in Myoblasts, value relative to DMSO” value in assay [2] (0.5 uM) is 1.0367; in assay [2] (1 uM) it was 0.9300; in assay [2] (5 uM) it was 0.9101; in assay [2] (10 uM), 1.0942; in assay [2] (20 uM), 0.8115; in assay [2] (40 uM), 1.1026. Also, the “Burkin Assay in Myoblasts, value relative to DMSO” value in assay [3] (0.5 uM) was found to be 1.0102; in assay [3] (1 uM) it was 1.003; in assay [3] (5 uM) it was 1.125; in assay [3] (10 uM), 0.9651; in assay [3] (20 uM), 1.117; in assay [3] (40 uM), 1.021. Besides, the “CMV-LACZ in Myotubes, value relative to DMSO” value in assay [4] (0.5 uM) is listed as 1.0238; in assay [4] (1 uM), 0.8695; in assay [4] (5 uM) it was 1.0546; in assay [4] (10 uM), 1.1047; in assay [4] (20 uM) it was 1.0789; in assay [4] (40 uM) it was 1.3600.

On to `COc1ccc(CNC(=O)C2CCCN(S(=O)(=O)c3c(C)noc3/C=C/N(C)C)C2)cc1` (stereo not drawn) [MLS000925023-01], for which the “Burkin Assay in Myotubes, α7 integrin LacZ reporter signal relative to DMSO” value was determined as 1.16 in assay [1] (0.5 uM); 1.24 in assay [1] (1 uM); 0.8969 in assay [1] (5 uM); 0.8784 in assay [1] (10 uM); 0.8004 in assay [1] (20 uM); 0.7318 in assay [1] (40 uM). The “CMV-LACZ in Myoblasts (β-galactosidase activity relative to DMSO)” value worked out at 1.0703 in assay [2] (0.5 uM); 0.9629 in assay [2] (1 uM); 0.9762 in assay [2] (5 uM); 0.8397 in assay [2] (10 uM); 0.5504 in assay [2] (20 uM); 0.3278 in assay [2] (40 uM). Besides, the “Burkin Assay in Myoblasts, signal relative to DMSO” value is reported as 0.996 in assay [3] (0.5 uM); 1.035 in assay [3] (1 uM); 0.9523 in assay [3] (5 uM); 0.7957 in assay [3] (10 uM); 0.7765 in assay [3] (20 uM); 0.4179 in assay [3] (40 uM). Besides, the “CMV-LACZ in Myotubes, signal relative to DMSO” value in assay [4] (0.5 uM) is recorded as 0.7505; in assay [4] (1 uM), 1.1333; in assay [4] (5 uM), 1.1638; in assay [4] (10 uM) it was 0.8859; in assay [4] (20 uM), 1.1565; in assay [4] (40 uM), 1.1106.

With `COc1ccc(C(=O)/C=C2/C(=O)Nc3ccccc32)cc1OC` [MLS001163860-01], the “Burkin Assay in Myotubes, value relative to DMSO” value in assay [1] (0.5 uM) is listed as 1.009; in assay [1] (1 uM), 0.9404; in assay [1] (5 uM) it was 0.9223; in assay [1] (10 uM), 1.138; in assay [1] (20 uM), 0.862; in assay [1] (40 uM), 1.209. Moreover, the “CMV-LACZ in Myoblasts, value relative to DMSO” value in assay [2] (0.5 uM) came out at 0.9350; in assay [2] (1 uM), 0.8230; in assay [2] (5 uM), 0.9610; in assay [2] (10 uM), 1.1417; in assay [2] (20 uM) it was 0.3425; in assay [2] (40 uM), 0.6488. Moreover, the “Burkin Assay in Myoblasts, value relative to DMSO” value in assay [3] (0.5 uM) came out at 0.9494; in assay [3] (1 uM), 0.8457; in assay [3] (5 uM), 0.5793; in assay [3] (10 uM), 0.4922; in assay [3] (20 uM), 0.1722; in assay [3] (40 uM), 0.2347. The “CMV-LACZ in Myotubes, value relative to DMSO” value in assay [4] (0.5 uM) amounted to 1.0352; in assay [4] (1 uM) it was 1.1562; in assay [4] (5 uM) it was 1.1250; in assay [4] (10 uM) it was 1.2757; in assay [4] (20 uM), 1.3880; in assay [4] (40 uM), 1.4490.
